Data as given in patent US20130059920A1, “HYDROXYTYROSOL BENEFITS MUSCLE DIFFERENTIATION AND MUSCLE CONTRACTION AND RELAXATION” (DSM IP ASSETS, B.V., priority 2009, published 2013).

Tests used:
[1] = Endurance capacity, treadmill running to exhaustion after 8 weeks long-term exercise (LTE); format: in vivo, Sprague-Dawley rats; conditions: exercise (LTE) rats, 25 mg/kg/day by gavage
Protocol: Sprague-Dawley male rats were purchased from a commercial breeder (SLAC, Shanghai). The rats were housed in a temperature—(22-28° C.) and humidity—(60%) controlled animal room and maintained on a 12-h light/12-h dark cycle (light on from 08:00 a.m. to 08:00 p.m.) with free access to food and water throughout the experiments. […] rats weighing 180-200 g were used. At the beginning of experiments, male rats were selected by one week running exercise at low speed (10 m/min, 20 min/day) and those high exercise activity rats were chosen for the experiments. Rats were randomly divided into four groups: Sedentary, Sedentary with HT supplement (25 mg/kg/day), Endurance exercise and Endurance exercise with HT supplement (25 mg/kg/day). HT was administrated by gavage 45 min before exercise program for each animal. Rats were run on a motorized treadmill at a speed of 20 m/min and a grade of 5° for 1 hour per day and 6 days per week. After 8 weeks exercise, endurance capacity was measured by treadmill running to exhaustion at a speed of 30 m/min and a grade of 5°. Exhaustion was defined as the inability to maintain running and avoid sound and light irritation.

GSH and MDA in LTE rats = format: in vivo, Sprague-Dawley rats; conditions: 25 mg/kg/day, data not shown
[2] = system: genes of calcium signaling and flux; assay: Gene chip analysis of human skeletal muscle biopsies (vastus lateralis), Human Genome U133 Plus 2.0; format: in vivo; conditions: 6 weeks, human muscle biopsy
Protocol: Three groups each n=20 were enrolled in the study. The group assignment was randomly done by subject weight across the 3 groups. Each subject received a total of 3 capsules each day over a period of 6 weeks: • Group 1—Placebo: 3 capsules with each 333 mg of modified starch • Group 2—LOW (50 mg/d hydroxytyrosol): 1 capsule with 333 mg investigational product (1 capsule with 50 mg hydroxytyrosol) and 2 capsules with each 333 mg modified starch • Group 3—HIGH (150 mg/d hydroxytyrosol): 3 capsules with each 333mg investigational product ([…])
Muscle biopsy was performed at 2 h after ingestion of the supplements as it had taken 30 min setup time before the tissue can be removed. Two skeletal muscle tissue biopsies were taken at beginning (day 1, baseline sample) of the study and at day 42. The following was assessed in skeletal muscle tissue: 1) global gene expression profile and 2) cellular factors in tissue involved in energy metabolism or other specific pathways.
A muscle biopsy (100 mg) was taken from the vastus lateralis, a thigh muscle.
The skin was cleaned with 10% povidone-iodine (Betadine Solution, Purdue Pharma L.P., Stamford, Conn.) and then anesthetized by injecting 1.5 cc of 1% Lidocaine-HCL into the skin. A 5-8 mm incision was made in the skin and subcutaneous fat, and then approximately 100 mg of muscle tissue was removed using a Bergstrom biopsy needle from the thigh musculature (Dyna Medical, London, Ont. Canada).
The biopsy was trimmed of adipose and connective tissue, weighted and separated into 25 mg and 75 mg, placed into labelled and cooled cryotubes and immediately frozen in liquid nitrogen. Samples are stored at −80° C. for subsequent analysis. The incision site will be sealed using butterfly bandages, then wrapped with a pressure pack to minimize bruising. Approximately 25 mg of muscle tissue was used to determine the effect of the olive product on the gene expression profile involved in the energy metabolism. Neither the Sponsor nor the investigator has performed genetic finger printing and has destroyed any remaining tissue after their testing has been completed.
RNA extraction from frozen tissue samples (skeletal muscle biopsies) as described above was done using Trizol method as followed:
RNA was processed using the 3′IVT Express Kit (Affymetrix, Cat. No. 901229) according to the manual.
Fragmented aRNA for each sample was hybridized onto a Human Genome U133 Plus 2.0 Gene Chip (Affymetrix, Cat. No. 900467).
All CEL files from Affymetrix were uploaded into the analysis software (Partek) using GCRMA. GCRMA is a method of converting CEL files into expression set using the Robust Multi-array Average (RMA) with the help of probe sequence and with GC-content background correction. It is a method for normalizing and summarizing probe-level intensity measurements from Affymetrix GeneChips. Three steps: Background correction, normalization, summarization.
After GCRMA preprocessing of the .CEL files, we exported the log 2-transformed expression values from Partek and imported them into the R statistics software (version 2.9.2, http://www.R-project.org). The 57 subjects for which both a pre- and a post-measurement was available were included in the analysis. We applied an ANCOVA (analysis of covariance) with the baseline measurement as covariate to each of the 54675 probesets. The aim was to compare the treatment effect between the groups, while adjusting for the individual baselines which might differ between subjects. The treatment effect between groups can thus be estimated more precisely since the subject-to-subject variability can be separated from the within-subject variability. The baseline and the end-measurements correlated well with each other within the subjects. […]

OCCc1ccc(O)c(O)c1 [hydroxytyrosol, 3,4-dihydroxyphenylethanol]
improvement of endurance capacity [1]: 35%
GSH (GSH and MDA in LTE rats): no effect
MDA (GSH and MDA in LTE rats): no effect
baseline-corrected fold-change vs placebo: ATPase, Ca++ transporting, cardiac muscle, fast twitch 1 ([2]; 50 mg HT/d): 1.11
baseline-corrected fold-change vs placebo: ATPase, Ca++ transporting, plasma membrane 2 ([2]; 50 mg HT/d): 1.06
baseline-corrected fold-change vs placebo: ATPase, Ca++ transporting, plasma membrane 4 ([2]; 50 mg HT/d): 1.10
baseline-corrected fold-change vs placebo: ATPase, Ca++ transporting, type 2C, member 1 ([2]; 50 mg HT/d): 1.07
baseline-corrected fold-change vs placebo: C2 calcium-dependent domain containing 3 ([2]; 50 mg HT/d): 1.13
baseline-corrected fold-change vs placebo: EF-hand calcium binding domain 2 ([2]; 50 mg HT/d): 1.09
baseline-corrected fold-change vs placebo: EF-hand calcium binding domain 7 ([2]; 50 mg HT/d): 1.00
baseline-corrected fold-change vs placebo: S100 calcium binding protein A4 ([2]; 50 mg HT/d): 1.07
baseline-corrected fold-change vs placebo: S100 calcium binding protein A8 ([2]; 50 mg HT/d): 1.08
baseline-corrected fold-change vs placebo: S100 calcium binding protein A10 ([2]; 50 mg HT/d): 1.06
baseline-corrected fold-change vs placebo: S100 calcium binding protein A13 ([2]; 50 mg HT/d): 1.05
baseline-corrected fold-change vs placebo: S100 calcium binding protein B ([2]; 50 mg HT/d): 1.05
baseline-corrected fold-change vs placebo: annexin A1 ([2]; 50 mg HT/d): 1.11
baseline-corrected fold-change vs placebo: annexin A2 ([2]; 50 mg HT/d): 1.13
baseline-corrected fold-change vs placebo: annexin A2 pseudogene 2 ([2]; 50 mg HT/d): 1.09
baseline-corrected fold-change vs placebo: annexin A6 ([2]; 50 mg HT/d): 1.06
baseline-corrected fold-change vs placebo: annexin A11 ([2]; 50 mg HT/d): 1.04
baseline-corrected fold-change vs placebo: cadherin, EGF LAG seven-pass G-type receptor 2 (flamingo homolog, Drosophila) ([2]; 50 mg HT/d): 1.08
baseline-corrected fold-change vs placebo: calbindin 2 ([2]; 50 mg HT/d): 1.06
baseline-corrected fold-change vs placebo: calcineurin-like phosphoesterase domain containing 1 ([2]; 50 mg HT/d): 1.11
baseline-corrected fold-change vs placebo: calcium and integrin binding family member 2 ([2]; 50 mg HT/d): 0.98
baseline-corrected fold-change vs placebo: calcium binding protein 4 ([2]; 50 mg HT/d): 1.07
baseline-corrected fold-change vs placebo: calcium binding protein 39 ([2]; 50 mg HT/d): 1.07
baseline-corrected fold-change vs placebo: calcium channel, voltage-dependent, L type, alpha 1S subunit ([2]; 50 mg HT/d): 1.03
baseline-corrected fold-change vs placebo: calcium channel, voltage-dependent, beta 1 subunit ([2]; 50 mg HT/d): 1.02
baseline-corrected fold-change vs placebo: calcium channel, voltage-dependent, gamma subunit 1 ([2]; 50 mg HT/d): 1.03
baseline-corrected fold-change vs placebo: calcium channel, voltage-dependent, gamma subunit 6 ([2]; 50 mg HT/d): 1.06
baseline-corrected fold-change vs placebo: calcium/calmodulin-dependent protein kinase II delta ([2]; 50 mg HT/d): 1.09
baseline-corrected fold-change vs placebo: calcium/calmodulin-dependent protein kinase kinase 2, beta ([2]; 50 mg HT/d): 1.11
baseline-corrected fold-change vs placebo: calmodulin 1 (phosphorylase kinase, delta) ([2]; 50 mg HT/d): 1.14
baseline-corrected fold-change vs placebo: calmodulin 3 (phosphorylase kinase, delta) ([2]; 50 mg HT/d): 1.09
baseline-corrected fold-change vs placebo: calmodulin regulated spectrin-associated protein 1 ([2]; 50 mg HT/d): 1.04
baseline-corrected fold-change vs placebo: calnexin ([2]; 50 mg HT/d): 0.98
baseline-corrected fold-change vs placebo: calpain 2, (m/II) large subunit ([2]; 50 mg HT/d): 1.04
baseline-corrected fold-change vs placebo: calpain 3, (p94) ([2]; 50 mg HT/d): 0.99
baseline-corrected fold-change vs placebo: calreticulin ([2]; 50 mg HT/d): 1.06
baseline-corrected fold-change vs placebo: protein phosphatase 3, catalytic subunit, alpha isozyme ([2]; 50 mg HT/d): 1.09
baseline-corrected fold-change vs placebo: regulator of calcineurin 1 ([2]; 50 mg HT/d): 1.07
baseline-corrected fold-change vs placebo: ryanodine receptor 3 ([2]; 50 mg HT/d): 1.23
baseline-corrected fold-change vs placebo: striatin, calmodulin binding protein 3 ([2]; 50 mg HT/d): 1.13
baseline-corrected fold-change vs placebo: ATPase, Ca++ transporting, cardiac muscle, fast twitch 1 ([2]; 150 mg HT/d): 1.196
baseline-corrected fold-change vs placebo: ATPase, Ca++ transporting, plasma membrane 2 ([2]; 150 mg HT/d): 1.174
baseline-corrected fold-change vs placebo: ATPase, Ca++ transporting, plasma membrane 4 ([2]; 150 mg HT/d): 1.023
baseline-corrected fold-change vs placebo: ATPase, Ca++ transporting, type 2C, member 1 ([2]; 150 mg HT/d): 1.080
baseline-corrected fold-change vs placebo: C2 calcium-dependent domain containing 3 ([2]; 150 mg HT/d): 1.078
baseline-corrected fold-change vs placebo: EF-hand calcium binding domain 2 ([2]; 150 mg HT/d): 1.080
baseline-corrected fold-change vs placebo: EF-hand calcium binding domain 7 ([2]; 150 mg HT/d): 1.075
baseline-corrected fold-change vs placebo: S100 calcium binding protein A4 ([2]; 150 mg HT/d): 1.114
baseline-corrected fold-change vs placebo: S100 calcium binding protein A8 ([2]; 150 mg HT/d): 1.056
baseline-corrected fold-change vs placebo: S100 calcium binding protein A10 ([2]; 150 mg HT/d): 1.045
baseline-corrected fold-change vs placebo: S100 calcium binding protein A13 ([2]; 150 mg HT/d): 1.064
baseline-corrected fold-change vs placebo: S100 calcium binding protein B ([2]; 150 mg HT/d): 1.019
baseline-corrected fold-change vs placebo: annexin A1 ([2]; 150 mg HT/d): 1.070
baseline-corrected fold-change vs placebo: annexin A2 ([2]; 150 mg HT/d): 1.047
baseline-corrected fold-change vs placebo: annexin A2 pseudogene 2 ([2]; 150 mg HT/d): 1.007
baseline-corrected fold-change vs placebo: annexin A6 ([2]; 150 mg HT/d): 1.062
baseline-corrected fold-change vs placebo: annexin A11 ([2]; 150 mg HT/d): 1.065
baseline-corrected fold-change vs placebo: cadherin, EGF LAG seven-pass G-type receptor 2 (flamingo homolog, Drosophila) ([2]; 150 mg HT/d): 1.030
baseline-corrected fold-change vs placebo: calbindin 2 ([2]; 150 mg HT/d): 1.006
baseline-corrected fold-change vs placebo: calcineurin-like phosphoesterase domain containing 1 ([2]; 150 mg HT/d): 1.070
baseline-corrected fold-change vs placebo: calcium and integrin binding family member 2 ([2]; 150 mg HT/d): 1.114
baseline-corrected fold-change vs placebo: calcium binding protein 4 ([2]; 150 mg HT/d): 1.024
baseline-corrected fold-change vs placebo: calcium binding protein 39 ([2]; 150 mg HT/d): 1.082
baseline-corrected fold-change vs placebo: calcium channel, voltage-dependent, L type, alpha 1S subunit ([2]; 150 mg HT/d): 1.080
baseline-corrected fold-change vs placebo: calcium channel, voltage-dependent, beta 1 subunit ([2]; 150 mg HT/d): 1.125
baseline-corrected fold-change vs placebo: calcium channel, voltage-dependent, gamma subunit 1 ([2]; 150 mg HT/d): 1.087
baseline-corrected fold-change vs placebo: calcium channel, voltage-dependent, gamma subunit 6 ([2]; 150 mg HT/d): 1.178
baseline-corrected fold-change vs placebo: calcium/calmodulin-dependent protein kinase II delta ([2]; 150 mg HT/d): 1.113
baseline-corrected fold-change vs placebo: calcium/calmodulin-dependent protein kinase kinase 2, beta ([2]; 150 mg HT/d): 1.033
baseline-corrected fold-change vs placebo: calmodulin 1 (phosphorylase kinase, delta) ([2]; 150 mg HT/d): 1.153
baseline-corrected fold-change vs placebo: calmodulin 3 (phosphorylase kinase, delta) ([2]; 150 mg HT/d): 1.041
baseline-corrected fold-change vs placebo: calmodulin regulated spectrin-associated protein 1 ([2]; 150 mg HT/d): 1.089
baseline-corrected fold-change vs placebo: calnexin ([2]; 150 mg HT/d): 1.066
baseline-corrected fold-change vs placebo: calpain 2, (m/II) large subunit ([2]; 150 mg HT/d): 1.053
baseline-corrected fold-change vs placebo: calpain 3, (p94) ([2]; 150 mg HT/d): 1.082
baseline-corrected fold-change vs placebo: calreticulin ([2]; 150 mg HT/d): 1.044
baseline-corrected fold-change vs placebo: protein phosphatase 3, catalytic subunit, alpha isozyme ([2]; 150 mg HT/d): 1.048
baseline-corrected fold-change vs placebo: regulator of calcineurin 1 ([2]; 150 mg HT/d): 1.009
baseline-corrected fold-change vs placebo: ryanodine receptor 3 ([2]; 150 mg HT/d): 1.355
baseline-corrected fold-change vs placebo: striatin, calmodulin binding protein 3 ([2]; 150 mg HT/d): 1.024
